For test [1], the target named is protein kinase C. The test is described as follows: PKC Activity Inhibition Assay. It is filed as biochemical. As to the method:
Fused pyrrolocarbazoles inhibited the activity of protein kinase C (Table VI). The protein kinase C assay has been disclosed (Murakata et al., U.S. Pat. No. 4,923,986; Kikkawa et al., J. Biol. Chem. 257:13341-13348 (1982)). The assay was performed with several concentrations of fused pyrrolocarbazoles. The concentration at which protein kinase C was 50% inhibited (IC50) was determined.

For test [2], the system named is indoleamine 2,3-dioxygenase (IDO) mRNA in THP-1 cells. The test is described as follows: Inhibition of Induction By IFNγ of IDO mRNA. It is filed as cell-based. The note with it: Homo sapiens, compound 400 nM, IFNγ 400 units/ml, IDO/GAPD mRNA ratio, 48 hours, read-out: IDO mRNA, Phosphorimager units, % of IFNγ-treated cells. As to the method:
Fused pyrrolocarbazoles in accordance with our invention were tested for their ability to inhibit the induction by IFNγ of indoleamine 2,3-dioxygenase (IDO) mRNA in THP-1 cells, a human monocyte cell line.
Cell Culture: THP-1 cells (American Type Culture Collection, Rockville, Md.), a human monocytic leukemia cell line, were grown in RPMI 1640 medium (Mediatech, Herndon Valley, Va.) with 50 μM 2-mercaptoethanol and 10% fetal bovine serum. Cells were plated in T75 culture flasks, at 4×10^4 cells/cm^2 in 10 ml of medium, and were immediately treated with fused pyrrolocarbazoles at various concentrations. After 30 minutes recombinant (E. coli) IFNγ (Boehringer Mannheim Corporation,Indianapolis, Ind.) was added at 200-400 units/ml. Cells were incubated (37° C., 5% CO2 /95% Air) for 48 hours after treatment.
RNA Isolation: Cells were pelleted by centrifugation (50× g, 7 min.) and medium was decanted. The cells were then washed two times with phosphate buffered saline pH 7.2 (PBS) (Mediatech, Herndon Valley, Va.). The washed cell pellet was lysed in 2 ml RNAzol B (Tel-Test, Inc., Friendswood, Tex.). RNA was isolated by chloroform extraction, precipitated, and washed following the "RNAzol B isolation of RNA" protocol accompanying this product. RNA was then solubilized in H2 O, and the concentration and purity were determined by reading the absorbance at A260 nm and A280 nm. Finally, the RNA was reprecipitated in ethanol, overnight at -20° C.
cDNA Probes: Indoleamine 2,3-dioxygenase (IDO) cDNA was received from Sohan L. Gupta, Ph. D. (Hipple Cancer Research Center, Dayton, Ohio) (see Da., W. & Gupta, S. L. 168 Biochem. Biophys. Res. Commun. 1, 1990 and Hassanain, H. H. et al. 268 J. Biol. Chem. 5077, 1993). Glyceraldehyde-3-phosphate dehydrogenase (GAPD) cDNA was obtained through American Type Culture Collection (Rockville, Md.). These cDNA's were produced and purified using standard methods (see, Sambrook, Fritsch, Maniatis (1989) Molecular Cloning a Laboratory Manual/Second Edition 1, 1.21-1.24, 1.74-1.81, hereinafter in this Example, "Maniatis a") using Qiagen plasmid purification kits (Qiagen Inc., Chatsworth, Calif.). DNA concentration and purity were determined by absorbance at 280 nm and 260 nm. Specific DNA inserts were cut out by standard methods using restriction enzymes, and subsequently separated on agarose gels as in Maniatis (see, Sambrook, Fritsch, Maniatis (1989) Molecular Cloning a Laboratory Manual/Second Edition 1, 6.9-6.15, hereinafter in this Example, "Maniatis b"). cDNA probes were further purified for [^32 P] labeling using the Geneclean II DNA purification kit (BIO 101, Inc., La Jolla, Calif.). Probes were labeled with dCTP-α-^32 P (Amersham Corp., Arlington Heights, Ill.) by random primer labeling, using the Prime-a-GeneLabeling System (Promega Corp., Madison, Wis.).
Analysis and quantification of mRNA: IDO mRNA was detected by Northern blot analysis (see Maniatis a, p. 7.39-7.51) using standard methods. […] Quantification of IDO mRNA was carried out using a phosphorimager (Molecular Dynamics) in which density (i.e., amount of RNA) is expressed as relative phosphorimager units. […] GAPD mRNA measurement by phosphorimager quantification of Northern blots serves as a means to normalize for potential sample to sample differences in the amount of total RNA loaded on gels. […]

For test [3], the system named is AT-2 cells. The test is described as follows: Inhibition of Growth of Prostate Cancer Cell Line (MTS assay). It is filed as cell-based. The following applies: 72 h; 3 days, MTS; read-out: AT-2 cell growth IC50. On the procedure:
AT-2 cells are a prostate cancer cell sub-line derived from the Dunning H tumor, graciously provided to us by Dr. John Isaacs (John Hopkins, M. D.). Unlike the Dunning H tumor cells, AT-2 cells can be grown in vitro.
Methods: At-2 cells ([…]) were plated on tissue culture plastic in 96-well plates in the presence of RPMI-1640 medium containing 10% fetal calf serum, 250 nM dexamethasone, 2 mM glutamine, 1 mM sodium pyruvate, and penicillin/streptomycin antibiotics. The next day, compounds were added at 4 concentrations (10, 1, 0.1, 0.01 μM) to determine the approximate IC50 range. Cultures were assayed 3 days later for cell number using the MTS [(3-(4,5-dimethylthiazol-2-yl)-5-(3-carboxymethoxyphenyl)-2-(4-sulfophenyl)-2H-tetrazolium, inner salt)] assay. The MTS assay (purchased as a kit from Promega) measures the formation of an aqueous soluble formazan (detected by a plate reader at 490nm) produced by the bioreduction of a tetrazolium compound (MTS) in metabolically active cells via mitochondrial succinate dehydrogenase. After determining linearity of the substrate incubation time over a range of cell plating densities, the amount of product measured is directly proportional to cell number. MTS (333 ug/ml) and 25 μM phenazine methosulfate are mixed and added directly to the culture medium, and incubated at 37° C. in the 5% CO2 /95% air incubator for 0.5-4 h. Absorbance of the product at 490 nm is read on the BIO-TEK plate reader. Background values were obtained from wells containing culture medium with substrate solution, but no cells. In addition, values were also obtained from wells containing cells plated at day 0 and assayed on the day compound was added (day 1) in order to determine the number of cells at the time compound was added. After the initial dose-finding experiment was completed, subsequent experiments were set up so that there were 3 or more concentrations near the predicted IC50.

The term IC50 denotes the concentration needed to halve the response being measured. For `O=C1NCc2c1c1c(c3[nH]c4ccccc4c23)Cc2ccccc2-1` [Compound I-2], the IC50 is 0.11 µM in test [1] and 4.6 µM in test [3]. Besides, the mrna remaining at 0.4 µM in test [2] came to 55%.

The values are drawn from patent US5594009A, “Fused pyrrolocarbazoles” (priority 1995, dated 1997).
